According to US20170342451A1, “BIOSYNTHESIS OF PACLITAXEL INTERMEDIATE” (Board of Trustees of Michigan State University, priority 2012, published 2017):

Target: T1, TycA (Brevibacillus parabrevis, UniProt P09095)
T1 construct: this wild-type tycA cDNA encoding the A-, T-, and E-domains was subcloned into a pSU18 vector; made in house; host or cells: Escherichia coli BL21(DE3)
T1 sequence (P09095 with tags, fused parts or gaps): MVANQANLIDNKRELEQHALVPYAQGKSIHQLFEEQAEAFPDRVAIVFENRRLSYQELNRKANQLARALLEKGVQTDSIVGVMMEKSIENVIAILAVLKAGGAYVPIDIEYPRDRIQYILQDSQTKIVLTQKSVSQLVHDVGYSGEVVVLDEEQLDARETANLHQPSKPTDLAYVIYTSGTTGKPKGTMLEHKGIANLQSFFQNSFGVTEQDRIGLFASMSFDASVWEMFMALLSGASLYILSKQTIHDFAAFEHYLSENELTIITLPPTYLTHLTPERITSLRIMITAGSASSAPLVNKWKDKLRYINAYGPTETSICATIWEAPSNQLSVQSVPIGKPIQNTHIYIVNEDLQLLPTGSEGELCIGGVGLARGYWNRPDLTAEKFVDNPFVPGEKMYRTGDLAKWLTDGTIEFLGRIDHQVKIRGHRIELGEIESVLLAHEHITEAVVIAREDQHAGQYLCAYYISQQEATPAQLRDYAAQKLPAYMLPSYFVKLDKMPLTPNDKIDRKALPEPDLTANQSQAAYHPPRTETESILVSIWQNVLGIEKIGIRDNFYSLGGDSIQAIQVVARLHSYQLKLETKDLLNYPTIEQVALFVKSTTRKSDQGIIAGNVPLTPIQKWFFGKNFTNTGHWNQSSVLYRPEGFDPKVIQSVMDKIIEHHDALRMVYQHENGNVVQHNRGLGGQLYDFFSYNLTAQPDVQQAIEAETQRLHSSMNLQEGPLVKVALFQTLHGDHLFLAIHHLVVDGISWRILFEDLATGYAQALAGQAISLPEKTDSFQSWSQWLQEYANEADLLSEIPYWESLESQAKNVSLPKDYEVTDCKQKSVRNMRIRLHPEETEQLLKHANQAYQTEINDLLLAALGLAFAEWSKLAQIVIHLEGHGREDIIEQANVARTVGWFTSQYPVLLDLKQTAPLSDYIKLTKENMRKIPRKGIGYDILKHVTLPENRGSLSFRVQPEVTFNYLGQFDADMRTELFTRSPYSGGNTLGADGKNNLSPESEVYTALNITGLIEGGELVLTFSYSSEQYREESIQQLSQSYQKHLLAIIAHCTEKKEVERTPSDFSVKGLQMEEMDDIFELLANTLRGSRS
Test: CoA ligase reaction kinetics, TycA
Type: biochemical, Brevibacillus brevis
Details: for kcat^CoA: turnover with CoA at apparent saturation
Protocol: Under steady-state conditions, (S)-α-phenylalanine, (R)-β-phenylalanine, and (2R,3S)-phenylisoserine at 5, 10, 20, 40, 80, 160, 250, 500, 1000 and 2000 μM were separately incubated with TycA or TycA-S563A (20 μg) for 30 min. At the end of each reaction, and prior to mass spectrometry analysis, acetyl CoA (1 μM) was added as the internal standard to each sample to correct for variations of the analyte. The products of the enzyme-catalyzed reaction were quantified by a liquid chromatography multiple reaction monitoring (LC-ESI-MRM) mass spectrometry technique (Anderson & Hunter, Mol. Cell. Proteomics 5: 573-588 (2006)) on the Quattro-Premier Electro-Spray Mass Spectrometer coupled with Acquity® UPLC system fitted with a C18 Ascentis Express column (2.5×50 mm, 2.7 μm) at 30° C. An aliquot (5 μL) of each sample was loaded onto the column and the analytes were eluted with a solvent gradient of acetonitrile (Solvent A) in 0.05% triethylamine in distilled water (Solvent B). Elution was held at 2.5% Solvent A for 3.17 min, increased to 100% Solvent A over 5 sec with a 2-min hold, and then returned to 2.5% Solvent A over 5 sec with a 50-sec hold. The flow rate employed was 0.4 mL/min. The effluent from the chromatography column was directed to the mass spectrometer where the first quadrupole mass analyzer (in negative ion mode) was set to select for the molecular ion of a biosynthesized acyl CoA product. The selected ion was then directed to a collision gas chamber where the collision energy was optimized to maximize the abundance of a single signature fragment ion (m/z 408, characteristic of acyl CoA thioesters) resolved in the second quadrupole mass analyzer by the MRM method. The peak area under the curve of fragment ion m/z 408 for each biosynthetic phenylpropionyl CoA thioester was converted to concentration by comparing the peak area of the same ion produced by authentic CoA (at 0.05, 0.1, 0.2, 0.4, 0.8, 1.6, 3.2, 6.4, 12.5, 25, 50, 100 μM) using linear regression analysis.
The KM values of TycA and TycA-S563A for CoA were assessed by incubating each enzyme separately with (S)-α-phenylalanine (1 mM), MgCl2 (3 mM), ATP (1 mM), and CoA at 0.05, 0.1, 0.2, 0.4, 0.8, 1.6, 3.2, 6.4, 12.8 and 25.6 mM at 31° C. for 20 min. At the end of each reaction and prior to mass spectrometry analysis, acetyl CoA (1 μM) was added as the internal standard to each sample to correct for variations of the analyte. The products of the enzyme-catalyzed reaction were quantified by LC-ESI-MRM, and the monitored fragment ion (m/z 408) derived from the CoA moiety of the thioester analytes in the effluent was quantified identically to the procedure described earlier herein.

[1] = TycA, CoA with (S)-α-Phe as cosubstrate

| Compound | Km (TycA, CoA 1 mM, ATP 1 mM, MgCl2 3 mM, 31° C., CoA with (S)-α-Phe as cosubstrate) | kcat^CoA [1] | catalytic preference of TycA, higher than for (2R,3S)-Phenylisoserine (TycA with CoA) | catalytic preference of TycA, higher than for (S)-α-Phe (TycA with CoA) |
| --- | --- | --- | --- | --- |
| N[C@@H](c1ccccc1)[C@@H](O)C(=O)O [(2R,3S)-PheIso, (2R,3S)-phenylisoserine] | 89.3 ± 15 µM | 0.00417 ± 0.00033 s⁻¹ | – | – |
| N[C@H](CC(=O)O)c1ccccc1 [(R)-β-Phe, (R)-β-phenylalanine] | – | 0.0267 ± 0.005 s⁻¹ | 10 fold | 5 fold |
